Experimental data from patent US20100119599A1 (ARCHER PHARMACEUTICALS, INC., priority 2006, published 2010).
Read-outs that look alike come from different tables or passages of the source.

Experiments:
[1] = tested on: Aβ1-40; experiment: Measurement of Aβ1-40 in culture medium of 7W WT APP751 CHO cells by ELISA; type: cell-based, Chinese hamster; conditions: for activity at 5 µM: Cricetulus griseus, 5 μM test compound, CHO cells stably transfected with human APP751, culture medium, ELISA, control DMSO; for Aβ1-40 (% of control): CHO cells that overexpress APP751, zero = below the detection limit of the assay;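 on all read-outs here: 5 µM test compound but RI-coded compounds at 10 µM for 24 hours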
[2] = tested on: Aβ1-42; experiment: Measurement of Aβ1-42 in culture medium of 7W WT APP751 CHO cells by ELISA; type: cell-based, Chinese hamster; conditions: for activity at 5 µM: Cricetulus griseus, 5 μM test compound, CHO cells stably transfected with human APP751, culture medium, ELISA, control DMSO; for Aβ1-42 (% of control): CHO cells that overexpress APP751, zero = below the detection limit of the assay;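 on Aβ1-42 (% of control): 5 µM test compound but RI-coded compounds at 10 µM for 24 hours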
[3] = Table 1, 0 = no detectable amount
[4] = Table 1, 0 = no detectable amount, read-out: Aβ1-42 (% of control)
[5] = Table 3, read-out: Aβ-42 (% of control)

C=CCOC(=O)C1=C(C)NC2=C(C(=O)CCC2)C1c1ccc(OC)c(OC)c1OC (stereo not shown) [ST014969, prop-2-enyl 2-methyl-5-oxo-4-(2,3,4-trimethoxyphenyl)-1,4,6,7,8-pentahydroquinoline-3-carboxylate]
activity at 5 µM [1, 3]: 39.7% | activity at 5 µM [2, 4]: 83.3%

CC1=C(C(=O)OCc2ccccc2)C(c2ccccc2C(F)(F)F)C2=C(CC(C)(C)CC2=O)N1 (stereo not shown) [ST014881, phenylmethyl 2,7,7-trimethyl-5-oxo-4-[2-(trifluoromethyl)phenyl]-1,4,6,7,8-pentahydroquinoline-3-carboxylate]
activity at 5 µM [1, 3]: 0% | activity at 5 µM [2, 4]: 49.9%

CCCOC(=O)C1=C(C)NC2=C(C(=O)CCC2)C1c1cccnc1 (stereo not shown) [ST017250, propyl 2-methyl-5-oxo-4-(3-pyridyl)-1,4,6,7,8-pentahydroquinoline-3-carboxylate]
activity at 5 µM [1, 3]: 28.5% | activity at 5 µM [2, 4]: 49.2%

COc1ccc(Br)cc1C1C(C(=O)OCC2CCCO2)=C(C)NC2=C1C(=O)CCC2 (stereo not shown) [ST052224, oxolan-2-ylmethyl 4-(5-bromo-2-methoxyphenyl)-2-methyl-5-oxo-1,4,6,7,8-pentahydroquinoline-3-carboxylate]
activity at 5 µM [1, 3]: 76.9% | activity at 5 µM [2, 4]: 68.1%

CCc1cccc(NC(=O)CSC2=C(C#N)C(c3cc(Br)cs3)C(C(=O)Nc3ccccc3)=C(C)N2)c1 (stereo not shown) [RI_80]
Aβ1-40 (% of control) [1]: 64.37 % of control | Aβ1-42 (% of control) [2]: 54.3 % of control

CC1=C(C(=O)OCCc2ccccc2)C(c2ccccc2C(F)(F)F)C2=C(CCCC2=O)N1 (stereo not shown) [ST052228, 2-phenylethyl 2-methyl-5-oxo-4-[2-(trifluoromethyl)phenyl]-1,4,6,7,8-pentahydroquinoline-3-carboxylate]
activity at 5 µM [1, 3]: 60.4% | activity at 5 µM [2, 4]: 36.9%

COCCOC(=O)C1=C(C)NC2=C(C(=O)CCC2)C1c1cc(OC)c(OC)cc1Br (stereo not shown) [ST052462, 2-methoxyethyl 4-(2-bromo-4,5-dimethoxyphenyl)-2-methyl-5-oxo-1,4,6,7,8-pentahydroquinoline-3-carboxylate]
activity at 5 µM [1, 3]: 61.8% | activity at 5 µM [2, 4]: 94.3%

CC1=C(C(=O)Nc2ccccc2)C(c2cccs2)C(C#N)=C(SCC(=O)NCc2ccc(Br)cc2)N1 (stereo not shown) [RI_20]
Aβ1-40 (% of control) [1]: 45.6 % of control | Aβ1-42 (% of control) [2]: 41.9 % of control

Cc1cc(=O)cc(C)n1NC(N)=S [ST002431, 1-[(aminothioxomethyl)amino]-2,6-dimethylhydropyridin-4-one]
activity at 5 µM ([1]; Table 3): 16.9% | activity at 5 µM [2, 5]: 97.6%

CC1=C(C(=O)Nc2ccc(Cl)cc2)C(c2ccccc2)C(C#N)=C(SCC(=O)Nc2cccc(C)c2)N1 (stereo not shown) [ST051153, 2-{5-[N-(4-chlorophenyl)carbamoyl]-3-cyano-6-methyl-4-phenyl(2-1,4-dihydropyridylthio)}-N-(3-methylphenyl)acetamide]
Aβ1-40 (% of control) [1]: 4.933 % of control | Aβ1-42 (% of control) [2]: 0 % of control

CC1=C(C(=O)Nc2ccccc2)C(c2ccsc2)C(C#N)=C(SCC(=O)Nc2ccc(Br)cc2)N1 (stereo not shown) [RI_73]
Aβ1-40 (% of control) [1]: 24.3 % of control | Aβ1-42 (% of control) [2]: 34.9 % of control

COCCOC(=O)C1=C(C)NC2=C(C(=O)CC(C)(C)C2)C1c1cc(OC)c(OC)c(OC)c1 (stereo not shown) [ST013356, 2-methoxyethyl 2,7,7-trimethyl-5-oxo-4-(3,4,5-trimethoxyphenyl)-1,4,6,7,8-pentahydroquinoline-3-carboxylate]
activity at 5 µM [1, 3]: 62.7% | activity at 5 µM [2, 4]: 82.5%

CC1=C(C(=O)OCc2ccccc2)C(c2cccs2)C2=C(CCCC2=O)N1 (stereo not shown) [ST017233, phenylmethyl 2-methyl-5-oxo-4-(2-thienyl)-1,4,6,7,8-pentahydroquinoline-3-carboxylate]
activity at 5 µM [1, 3]: 60.9% | activity at 5 µM [2, 4]: 27.4%

N#CC1=C(N)n2c(s/c(=C/c3cccc(Br)c3)c2=O)=C(C#N)C1c1cccc(Br)c1 (stereo not shown) [ST024841, 5-amino-7-(3-bromophenyl)-2-[(3-bromophenyl)methylene]-3-oxo-4,7-dihydro-1,3-thiazolidino[3,2-a]pyridine-6,8-dicarbonitrile]
Aβ1-40 (% of control) [1]: 61.78 % of control | Aβ1-42 (% of control) [2]: 95.58 % of control

CC1=C(C(=O)OC(C)C)C(c2ccncc2)C2=C(CCCC2=O)N1 (stereo not shown) [ST013090, methylethyl 2-methyl-5-oxo-4-(4-pyridyl)-1,4,6,7,8-pentahydroquinoline-3-carboxylate]
activity at 5 µM [1, 3]: 41.1% | activity at 5 µM [2, 4]: 87.3%

CCCOC(=O)C1=C(C)NC2=C(C(=O)CC(c3ccc(Cl)cc3)C2)C1c1ccc(Cl)c(Cl)c1 (stereo not shown) [ST017183, propyl 4-(3,4-dichlorophenyl)-7-(4-chlorophenyl)-2-methyl-5-oxo-1,4,6,7,8-pentahydroquinoline-3-carboxylate]
activity at 5 µM [1, 3]: 50.1% | activity at 5 µM [2, 4]: 67.9%

COC(=O)CSC1=C(C#N)C(c2cccs2)C(C(C)=O)=C(C)N1 (stereo not shown) [ST014038, methyl 2-(5-acetyl-3-cyano-6-methyl-4-(2-thienyl)-2-1,4-dihydropyridylthio)acetate]
Aβ1-40 (% of control) [1]: 29.98 % of control | Aβ1-42 (% of control) [2]: 21.82 % of control

COCCOC(=O)C1=C(C)NC2=C(C(=O)CC(c3ccccc3)C2)C1c1ccc([N+](=O)[O-])cc1 (stereo not shown) [ST017027, 2-methoxyethyl 2-methyl-4-(4-nitrophenyl)-5-oxo-7-phenyl-1,4,6,7,8-pentahydroquinoline-3-carboxylate]
activity at 5 µM [1, 3]: 35.1% | activity at 5 µM [2, 4]: 82.1%

CCCOc1ccccc1C1C(C(=O)OCc2ccccc2)=C(C)NC2=C1C(=O)CCC2 (stereo not shown) [ST014957, phenylmethyl 2-methyl-5-oxo-4-(2-propoxyphenyl)-1,4,6,7,8-pentahydroquinoline-3-carboxylate]
activity at 5 µM [1, 3]: 0% | activity at 5 µM [2, 4]: 62.8%

COc1cc(C2C(C(=O)OC3CCCCC3)=C(C)NC3=C2C(=O)CC(c2ccccc2)C3)ccc1O (stereo not shown) [ST013387, cyclohexyl 4-(4-hydroxy-3-methoxyphenyl)-2-methyl-5-oxo-7-phenyl-1,4,6,7,8-pentahydroquinoline-3-carboxylate]
activity at 5 µM [1, 3]: 40% | activity at 5 µM [2, 4]: 26.4%

CCCOC(=O)C1=C(C)NC2=C(C(=O)CC(C)(C)C2)C1c1ccc(OC)cc1OC (stereo not shown) [ST017226, propyl 4-(2,4-dimethoxyphenyl)-2,7,7-trimethyl-5-oxo-1,4,6,7,8-pentahydroquinoline-3-carboxylate]
activity at 5 µM [1, 3]: 23.6% | activity at 5 µM [2, 4]: 26.5%

COC(=O)C1=C(C)NC2=C(C(=O)CC(c3cccs3)C2)C1c1ccc(C(F)(F)F)cc1 (stereo not shown) [ST052493, methyl 2-methyl-5-oxo-7-(2-thienyl)-4-[4-(trifluoromethyl)phenyl]-1,4,6,7,8-pentahydroquinoline-3-carboxylate]
activity at 5 µM [1, 3]: 39.9% | activity at 5 µM [2, 4]: 57.1%

COCCOC(=O)C1=C(C)NC2=C(C(=O)CCC2)C1c1ccccc1 (stereo not shown) [ST013253, 2-methoxyethyl 2-methyl-5-oxo-4-phenyl-1,4,6,7,8-pentahydroquinoline-3-carboxylate]
activity at 5 µM [1, 3]: 50.2% | activity at 5 µM [2, 4]: 85.8%

CCCCCOC(=O)C1=C(C)NC2=C(C(=O)CC(C)(C)C2)C1c1ccc(C)cc1 (stereo not shown) [ST216602, pentyl 2,7,7-trimethyl-4-(4-methylphenyl)-5-oxo-1,4,6,7,8-pentahydroquinoline-3-carboxylate]
activity at 5 µM [1, 3]: 2.65% | activity at 5 µM [2, 4]: 5.01%

N[C@@H](Cn1ccc(=O)c(O)c1)C(=O)O [ST056312, (2S)-2-amino-3-(3-hydroxy-4-oxohydropyridyl)propanoic acid]
activity at 5 µM ([1]; Table 3): 70.7% | activity at 5 µM [2, 5]: 37.1%

CCCOc1ccccc1C1C(C(=O)OCCc2ccccc2)=C(C)NC2=C1C(=O)CC(C)(C)C2 (stereo not shown) [ST015048, 2-phenylethyl 2,7,7-trimethyl-5-oxo-4-(2-propoxyphenyl)-1,4,6,7,8-pentahydroquinoline-3-carboxylate]
activity at 5 µM [1, 3]: 37.9% | activity at 5 µM [2, 4]: 88.7%

CCOc1cc(C2C(C(=O)OCc3ccccc3)=C(C)NC3=C2C(=O)CC(c2ccccc2)C3)ccc1O (stereo not shown) [ST017228, phenylmethyl 4-(3-ethoxy-4-hydroxyphenyl)-2-methyl-5-oxo-7-phenyl-1,4,6,7,8-pentahydroquinoline-3-carboxylate]
activity at 5 µM [1, 3]: 95.6% | activity at 5 µM [2, 4]: 60.2%

C=CCOC(=O)C1=C(C)NC(S)=C(C#N)C1c1cccnc1 (stereo not shown) [ST011596, prop-2-enyl 5-cyano-2-methyl-4-(3-pyridyl)-6-sulfanyl-1,4-dihydropyridine-3-carboxylate]
Aβ1-40 (% of control) [1]: 66.77 % of control | Aβ1-42 (% of control) [2]: 86.14 % of control

CC1=C(C(=O)OC(C)(C)C)C(c2ccc(Cl)cc2)C(C#N)=C(SCC(=O)Nc2ccc(C)cc2)N1 (stereo not shown) [ST051142, tert-butyl 4-(4-chlorophenyl)-5-cyano-2-methyl-6-{[N-(4-methylphenyl)carbamoyl]methylthio}-1,4-dihydropyridine-3-carboxylate]
Aβ1-40 (% of control) [1]: 94.85 % of control | Aβ1-42 (% of control) [2]: 46.06 % of control
